Test results taken from patent US5965407A, “Anthracycline compound 0624” (Higeta Shoyu Co. Ltd., priority 1997, dated 1999).
Values after ≈ are worked out from the molar mass of the structure shown.

Key:
[1] = tested on: L1210 cell line; assay: Growth inhibition of L1210 cells (MTT assay); type: cell-based; details: Mus musculus, L1210, 72 hours, 37° C.
Procedure: (§1) Cell suspensions were prepared (at 5.6×10^6 cells/ml) by using RPMI 1640 medium for L1210 cell line, RPMI 1640 medium containing 20 μM 2-mercaptoethanol (all the media containing 10% bovine serum) for P388 cell line and an adriamycin resistant P388 cell line, Eagle's MEM medium for KB cell line, and α-MEM medium for CHO cell line.
(§2) Test samples (0624-A and 0624-B) were individually dissolved in methanol and serially diluted with the individual media in a series of 2-fold dilution starting from a concentration of 0.1 mg/ml. The cell suspensions (each of 180 μl) and each test sample (20 μl) were divided in a 96-well microtiter plate, and subjected to culturing in wet atmosphere of 5% CO2 -95% air at 37° C. 72 hours after, cell growth was determined by the calorimetric assay using 3-(4, 5-dimethyl-z-thiazolyl)-2,5-diphenyl-2H-tetrazolium bromide (MTT). More specifically, 20 μl each of 2 mg/ml MTT solution was added into each well, followed by culturing at 37° C. for 4 hours. Then, 50 μl of 50 % dimethylformamide solution containing 20% sodium dodecyl sulfate was added to each well, which was left to stand. The resulting formed violet formazan crystal was solubilized and subjected to determination of absorbance at 570 nm, by using a microplate reader (Immunoreader), which was used as the indicator of growth. […]

[2] = tested on: P388 cell line; assay: Growth inhibition of P388 cells (MTT assay); type: cell-based; details: Mus musculus, P388, 72 hours, 37° C.
Procedure: as §1, §2

[3] = tested on: Adriamycin resistant P388 cell line; assay: Growth inhibition of adriamycin resistant P388 cells (MTT assay); type: cell-based; details: Mus musculus, Adriamycin resistant P388, 72 hours, 37° C.
Procedure: as §1, §2

[4] = tested on: KB cell line; assay: Growth inhibition of KB cells (MTT assay); type: cell-based; details: Homo sapiens, 72 hours, 37° C.
Procedure: as §1, §2

[5] = tested on: CHO cell line; assay: Growth inhibition of CHO cells (MTT assay); type: cell-based; details: Cricetulus griseus, 72 hours, 37° C.
Procedure: as §1, §2

[6] = tested on: cell lines L1210, P388, adriamycin resistant P388, KB and CHO; assay: Growth inhibition of the tumor cell line panel (MTT assay), summary in words; type: cell-based
Procedure: as §1, §2

[7] = tested on: Micrococcus luteus IFM2066; assay: Antimicrobial activity (MIC), Micrococcus luteus; type: cell-based; details: Micrococcus luteus IFM2066, Muller-Hinton broth, 24 hours, 37° C.
Procedure: (§3) The antimicrobial activity of compound 0624 was confirmed through the assaying of the minimum growth inhibitory concentration (MIC).
(§4) The MICs of compound 0624 against various bacteria were determined in a Muller-Hinton broth (BBL) containing 0.2% glucose, according to the standard defined by the Japan Chemotherapy Association (The Essentials of Antibiotics, the 4-th edition, Tokyo University Press, 1992).
(§5) The test bacteria were adjusted to 1×10^8 cfu/ml in the broth, and then used as test bacteria solutions.
(§6) The test samples (compounds 0624-A and 0624-B) were, separately, dissolved in methanol and were then serially diluted with the broth in a series of 2-fold dilution, starting from a concentration of 0.1 mg/ml. Each test bacteria solution (180 μl) and each test sample (20 μl) were divided in a 96-well microtiter plate, and cultured at 37° C. After 24 hours, the MIC was observed and calculated by the eye, and the resulting MIC was defined as MIC value.

[8] = tested on: Staphylococcus aureus 209P; assay: Antimicrobial activity (MIC), Staphylococcus aureus; type: cell-based; details: Muller-Hinton broth, 24 hours, 37° C.
Procedure: as §3, §4, §5, §6

[9] = tested on: Bacillus subtilis PC1189; assay: Antimicrobial activity (MIC), Bacillus subtilis; type: cell-based; details: Bacillus subtilis PC1189, Muller-Hinton broth, 24 hours, 37° C.
Procedure: as §3, §4, §5, §6

[10] = tested on: Nocardia transvalensis IFM0333; assay: Antimicrobial activity (MIC), Nocardia transvalensis; type: cell-based; details: Nocardia transvalensis IFM0333, Muller-Hinton broth, 24 hours, 37° C.
Procedure: as §3, §4, §5, §6

[11] = tested on: N. brasiliensis IFM0236; assay: Antimicrobial activity (MIC), N. brasiliensis; type: cell-based; details: N. brasiliensis IFM0236, Muller-Hinton broth, 24 hours, 37° C.
Procedure: as §3, §4, §5, §6

[12] = tested on: N. otitidiscaviarum IFM0239; assay: Antimicrobial activity (MIC), N. otitidiscaviarum; type: cell-based; details: N. otitidiscaviarum IFM0239, Muller-Hinton broth, 24 hours, 37° C.
Procedure: as §3, §4, §5, §6

[13] = tested on: N. nova IFM0290; assay: Antimicrobial activity (MIC), N. nova; type: cell-based; details: N. nova IFM0290, Muller-Hinton broth, 24 hours, 37° C.
Procedure: as §3, §4, §5, §6

[14] = tested on: N. asteroides IFM0319; assay: Antimicrobial activity (MIC), N. asteroides; type: cell-based; details: Nocardia asteroides; N. asteroides IFM0319, Muller-Hinton broth, 24 hours, 37° C.
Procedure: as §3, §4, §5, §6

[15] = tested on: N. farcinica IFM0284; assay: Antimicrobial activity (MIC), N. farcinica; type: cell-based; details: Nocardia farcinica; N. farcinica IFM0284, Muller-Hinton broth, 24 hours, 37° C.
Procedure: as §3, §4, §5, §6

[16] = tested on: Mycobacterium smegmatis ATCC607; assay: Antimicrobial activity (MIC), Mycobacterium smegmatis; type: cell-based; details: Mycolicibacterium smegmatis; Mycobacterium smegmatis ATCC607, Muller-Hinton broth, 24 hours, 37° C.
Procedure: as §3, §4, §5, §6

[17] = tested on: M. phlei ATCC11758; assay: Antimicrobial activity (MIC), M. phlei; type: cell-based; details: Mycolicibacterium phlei; M. phlei ATCC11758, Muller-Hinton broth, 24 hours, 37° C.
Procedure: as §3, §4, §5, §6

[18] = tested on: M. flavescens ATCC14474; assay: Antimicrobial activity (MIC), M. flavescens; type: cell-based; details: Mycolicibacterium flavescens; M. flavescens ATCC14474, Muller-Hinton broth, 24 hours, 37° C.
Procedure: as §3, §4, §5, §6

[19] = tested on: gram-positive bacteria; assay: Antimicrobial activity, summary in words; type: cell-based; details: gram-positive bacteria of Table 6
Procedure: as §3, §4, §5, §6

[20] = Solubility; type: physicochemical
[21] = in chloroform, ether and hexane
[22] = in water, methanol, ethanol, DMSO and ethyl acetate

Structure (SMILES) | IC50 [1] [µg/mL] | IC50 [2] [µg/mL] | IC50 [3] [µg/mL] | IC50 [4] [µg/mL] | IC50 [5] [µg/mL] | growth inhibitory activities against the cell lines [6] | MIC [7] [µg/mL] | MIC [8] [µg/mL] | MIC [9] [µg/mL] | MIC [10] [µg/mL] | MIC [11] [µg/mL] | MIC [12] [µg/mL] | MIC [13] [µg/mL] | MIC [14] [µg/mL] | MIC [15] [µg/mL] | MIC [16] [µg/mL] | MIC [17] [µg/mL] | MIC [18] [µg/mL] | antimicrobial activity against gram-positive bacteria [19] | Solubility [20, 21] | also measured
COc1ccc(O)c2c1C(=O)c1cc3c(c(O)c1C2=O)C(OC1CC(C)(N(C)C)C(O)C(C)O1)C(OC)C(C)(O)C3=O (stereo not drawn) [Compound 0624-A] | 0.15 (≈ 0.256 µM) | 0.47 (≈ 0.803 µM) | 0.97 (≈ 1.66 µM) | 1.06 (≈ 1.81 µM) | 12.3 (≈ 21 µM) | have the growth inhibitory activities | 1.56 (≈ 2.66 µM) | 3.13 (≈ 5.34 µM) | 6.25 (≈ 10.7 µM) | 3.13 (≈ 5.34 µM) | 6.25 (≈ 10.7 µM) | 1.56 (≈ 2.66 µM) | 0.78 (≈ 1.33 µM) | 1.56 (≈ 2.66 µM) | 3.13 (≈ 5.34 µM) | 1.56 (≈ 2.66 µM) | 0.78 (≈ 1.33 µM) | 3.13 (≈ 5.34 µM) | wide spectrum of antimicrobial activity | Insoluble | Solubility [20, 22]: Soluble
COc1ccc(O)c2c1C(=O)c1cc3c(c(O)c1C2=O)C(OC1CC(C)(N(C)C)C(OC(C)=O)C(C)O1)C(OC)C(C)(O)C3=O (stereo not drawn) [Compound 0624-B] | 0.18 (≈ 0.287 µM) | 0.59 (≈ 0.94 µM) | 1.05 (≈ 1.67 µM) | 1.32 (≈ 2.1 µM) | 18.6 (≈ 29.6 µM) | have the growth inhibitory activities | 12.5 (≈ 19.9 µM) | 100 (≈ 159 µM) | 3.13 (≈ 4.99 µM) | 6.25 (≈ 9.96 µM) | > 100 | > 100 | 1.56 (≈ 2.49 µM) | 3.13 (≈ 4.99 µM) | 12.5 (≈ 19.9 µM) | 3.13 (≈ 4.99 µM) | 3.13 (≈ 4.99 µM) | 12.5 (≈ 19.9 µM) | wide spectrum of antimicrobial activity | Insoluble | Solubility [20, 22]: Soluble
